The text below walks through data of ChEMBL document CHEMBL1152951, “Tabernines A-C, beta-carbolines from the leaves of Tabernaemontana elegans” (J Nat Prod, 2009).

For series [1], the target named is T1, ATP-dependent translocase ABCB1 (Homo sapiens, UniProt P08183). To be noted: l5178y, 10 min, 22.2 µM.
Description: Reversal of human MDR1-mediated multidrug resistance in mouse L5178Y cells expressing MDR1 assessed as mean fluorescence intensity of rhodamine-123 uptake at 22.2 uM after 10 mins by flow cytometry
Series [2] has as its target T1, ATP-dependent translocase ABCB1. As to the kind of experiment: Reversal of human MDR1-mediated multidrug resistance in mouse L5178Y cells expressing MDR1 assessed as mean fluorescence intensity of rhodamine-123 uptake at 20 uM after 10 mins by flow cytometry. It is filed as cell-based. In general terms: A flow cytometer gives signals particle by particle.
For series [3] the target is unchanged. The experiment in a line: Reversal of human MDR1-mediated multidrug resistance in mouse L5178Y cells expressing MDR1 assessed as fluorescence activity ratio at 20 uM after 10 mins by rhodamine-123 exclusion test. It is filed as cell-based.
The target is the same in series [4]. The experiment in a line: Reversal of human MDR1-mediated multidrug resistance in mouse L5178Y cells expressing MDR1 assessed as mean fluorescence intensity of rhodamine-123 uptake at 2 uM after 10 mins by flow cytometry. It is filed as cell-based.
For series [5] the target is unchanged. The experiment in a line: Reversal of human MDR1-mediated multidrug resistance in mouse L5178Y cells expressing MDR1 assessed as fluorescence activity ratio at 2 uM after 10 mins by rhodamine-123 exclusion test. It is filed as cell-based.
Series [6] relates to L5178Y. The experiment in a line: Antiproliferative activity against mouse L5178Y cells after 72 hrs by MTT assay. It is filed as functional. To be noted: read-out: ID50 (the source's name). In general terms: Formazan colour is commonly taken as a measure of viable cells.
Series [7] has as its system L5178Y. The experiment in a line: Antiproliferative activity against multidrug resistant mouse L5178Y cells expressing human MDR1 after 72 hrs by MTT assay. It is filed as functional. To be noted: read-out: ID50 (the source's name).

Structures are written as SMILES. pIC50: −log10 of the molar value.

T1 sequence (P08183 whole entry): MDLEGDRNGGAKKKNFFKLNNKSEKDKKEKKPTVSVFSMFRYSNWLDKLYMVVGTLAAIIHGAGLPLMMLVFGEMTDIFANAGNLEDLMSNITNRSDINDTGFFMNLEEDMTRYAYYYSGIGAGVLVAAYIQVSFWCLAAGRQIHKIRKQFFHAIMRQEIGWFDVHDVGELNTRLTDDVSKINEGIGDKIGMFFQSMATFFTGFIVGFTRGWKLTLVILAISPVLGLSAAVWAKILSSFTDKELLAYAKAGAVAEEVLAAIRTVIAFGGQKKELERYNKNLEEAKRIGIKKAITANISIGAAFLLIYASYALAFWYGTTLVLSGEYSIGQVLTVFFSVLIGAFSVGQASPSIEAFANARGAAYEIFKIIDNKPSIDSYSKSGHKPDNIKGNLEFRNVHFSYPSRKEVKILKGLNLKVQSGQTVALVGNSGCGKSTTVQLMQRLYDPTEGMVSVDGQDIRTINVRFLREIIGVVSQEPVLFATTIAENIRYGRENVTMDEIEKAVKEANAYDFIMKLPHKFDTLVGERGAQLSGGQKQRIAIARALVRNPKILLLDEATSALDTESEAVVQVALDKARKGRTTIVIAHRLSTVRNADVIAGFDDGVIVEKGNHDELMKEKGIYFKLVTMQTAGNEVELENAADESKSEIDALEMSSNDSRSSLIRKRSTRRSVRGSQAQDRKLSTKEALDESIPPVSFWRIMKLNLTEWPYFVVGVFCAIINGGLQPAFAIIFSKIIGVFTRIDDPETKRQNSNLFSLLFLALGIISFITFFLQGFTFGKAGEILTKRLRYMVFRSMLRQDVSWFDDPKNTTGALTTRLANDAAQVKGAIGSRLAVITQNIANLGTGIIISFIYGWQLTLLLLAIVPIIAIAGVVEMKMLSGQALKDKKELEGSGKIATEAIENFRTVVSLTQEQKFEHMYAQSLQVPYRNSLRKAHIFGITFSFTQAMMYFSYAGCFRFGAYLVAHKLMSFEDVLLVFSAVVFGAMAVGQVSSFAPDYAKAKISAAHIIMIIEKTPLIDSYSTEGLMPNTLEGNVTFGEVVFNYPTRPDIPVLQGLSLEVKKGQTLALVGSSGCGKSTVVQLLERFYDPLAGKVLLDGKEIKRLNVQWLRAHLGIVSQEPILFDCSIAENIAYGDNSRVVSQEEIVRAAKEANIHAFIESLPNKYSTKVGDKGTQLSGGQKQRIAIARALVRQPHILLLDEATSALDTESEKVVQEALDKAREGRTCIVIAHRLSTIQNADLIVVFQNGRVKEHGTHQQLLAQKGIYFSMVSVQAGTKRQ

In series [1], `COc1ccc(CCN(C)CCCC(C#N)(c2ccc(OC)c(OC)c2)C(C)C)cc1OC` (centres undefined) [VERAPAMIL] displayed a Flu intensity of 98.9.
`Cc1cc2c3ccccc3n3c2c(n1)CCNC3C` (centres undefined) [TEBERNINE B]: the Activity in series [2] is 10.7; in series [4], 8.9. Further, the Ratio was determined as 0.99 in series [3] and 0.78 in series [5]. Further, the figures for the pIC50 in series [6] and in series [7] were 4.33 and 4.40, respectively.
Take `Cc1cc2c([n-]c3ccccc32)c2[n+]1C(C)NCC2` (centres undefined) [TABERNINE A]: the results for the Flu intensity in series [2] and in series [4] were 18.5 and 7.7, respectively. For the same compound, the Ratio in series [3] is given as 1.73; in series [5], 0.72. Also, the pIC50 in series [6] is 4.34; in series [7] it was 4.43.
In the case of `Cc1cc2c([nH]c3ccccc32)c(CCN)n1` [TEBERNINE C], the values for the Activity in series [2] and in series [4] were 15.3 and 8.4, respectively. Also, the Ratio is on record as 1.43 in series [3] and 0.79 in series [5]. For the same compound, the pIC50 in series [6] is 4.15; in series [7], 4.29.
